According to patent US9085507B2, “Desfesoterodine in the form of a tartaric acid salt” (ratiopharm GmbH, priority 2009, dated 2015):
Structures can show the parent of a compound that is named as a salt.

Key:
[1] = In vitro solubility behaviour; format: physicochemical; settings: for In vitro solubility profile: compared with fesoterodine fumarate
Method: The in vitro solubility behaviour of fesoterodine fumarate (crystalline, commercially available), desfesoterodine fumarate in accordance with Comparative Example 1 and desfesoterodine tartrate in accordance with Example 1 of the invention was investigated:
Solubility behaviour scale: • poor: <20 mg/ml • average: 20 to 60 mg/ml • good: >60 to 80 mg/ml • very good: >80 mg/ml

[2] = Stability on storage, stress test; format: physicochemical
Method: Further, the stability on storage of desfesoterodine tartrate was determined in a stress test.

[3] = test system: overactive bladder syndrome; settings: both phase III studies, over placebo; cited from earlier work

Row | Compound | In vitro solubility profile [1] | In vitro solubility behaviour ([1]; pH 4.5) | In vitro solubility behaviour ([1]; pH 10) | Stability on storage ([2]; aqueous solution, pH of 4.5) | Stability on storage ([2]; aqueous solution, pH of 10) | Stability on storage ([2]; solid form) | In vitro solubility profile ([1]; listed as desfesoterodine salt of the invention) | Clinically relevant outcomes (urge incontinence results/24 h, micturition frequency, median micturition volume) [3]
1 | CC(C)N(CC[C@H](c1ccccc1)c1cc(CO)ccc1O)C(C)C [Desfesoterodine fumarate, (R)-2-(3-diisopropylamino-1-phenylpropyl)-4-hydroxymethylphenol] | substantially poorer in vitro solubility profile | Poor | Poor |  |  |  |  | 
2 | CC(C)N(CC[C@H](c1ccccc1)c1cc(CO)ccc1O)C(C)C [Desfesoterodine tartrate, (R)-2-(3-diisopropylamino-1-phenylpropyl)-4-hydroxymethylphenol] |  | Good | Good | advantageous stability on storage | advantageous stability on storage | advantageous stability on storage | almost identical in vitro solubility profile to that of fesoterodine fumarate | 
3 | CC(C)C(=O)Oc1ccc(CO)cc1[C@H](CCN(C(C)C)C(C)C)c1ccccc1 [Fesoterodine fumarate, 2-[(1R)-3-(diisopropylamino)-1-phenylpropyl]-4-(hydroxymethyl)phenyl-isobutyrate] |  | Good | Good |  |  |  |  | 
4 | CC(C)C(=O)Oc1ccc(CO)cc1[C@H](CCN(C(C)C)C(C)C)c1ccccc1 [Fesoterodine, 2-[(1R)-3-(diisopropylamino)-1-phenylpropyl]-4-(hydroxymethyl)phenyl-isobutyrate] |  |  |  |  |  |  |  | statistically significant improvements
